# Read-outs that look alike come from different tables or passages of the source.
# Tests used:
# Aurora-2 (Aurora A) = target: T1, Aurora-2 (Aurora A) (Homo sapiens, UniProt O14965); assay: Aurora-2 (Aurora A) Inhibition Assay, coupled enzyme assay; assay type: biochemical; settings: 400 μM ATP, 30° C.; read-out: Aurora A kinase activity Ki
# T1 sequence (O14965 1-403): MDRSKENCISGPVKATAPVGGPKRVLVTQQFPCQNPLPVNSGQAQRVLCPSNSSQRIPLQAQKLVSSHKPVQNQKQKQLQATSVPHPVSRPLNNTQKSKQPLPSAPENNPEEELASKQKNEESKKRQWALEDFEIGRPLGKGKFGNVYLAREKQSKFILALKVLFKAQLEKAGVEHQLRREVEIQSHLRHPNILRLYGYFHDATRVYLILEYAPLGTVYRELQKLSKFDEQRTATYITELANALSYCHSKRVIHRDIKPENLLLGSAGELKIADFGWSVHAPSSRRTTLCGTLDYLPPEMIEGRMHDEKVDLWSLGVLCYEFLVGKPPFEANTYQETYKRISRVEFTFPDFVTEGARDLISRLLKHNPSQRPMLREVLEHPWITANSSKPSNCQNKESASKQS
# Protocol: Compounds were screened for their ability to inhibit Aurora-2 using a standard coupled enzyme assay (Fox et al., Protein Sci., (1998) 7, 2249). Assays were carried out in a mixture of 100 mM Hepes (pH7.5), 10 mM MgCl2, 1 mM DTT, 25 mM NaCl, 2.5 mM phosphoenolpyruvate, 300 μM NADH, 30 μg/ml pyruvate kinase and 10 μg/ml lactate dehydrogenase. Final substrate concentrations in the assay were 400 μM ATP (Sigma Chemicals) and 570 μM peptide (Kemptide, American Peptide, Sunnyvale, Calif.). Assays were carried out at 30° C. and in the presence of 40 nM Aurora-2.
# An assay stock buffer solution was prepared containing all of the reagents listed above, with the exception of Aurora-2 and the test compound of interest. 55 μl of the stock solution was placed in a 96 well plate followed by addition of 2 μl of DMSO stock containing serial dilutions of the test compound (typically starting from a final concentration of 7.5 μM). The plate was preincubated for 10 minutes at 30° C. and the reaction initiated by addition of 10 μl of Aurora-2. Initial reaction rates were determined with a Molecular Devices SpectraMax Plus plate reader over a 10 minute time course. IC50 and Ki data were calculated from non-linear regression analysis using the Prism software package (GraphPad Prism version 3.0cx for Macintosh, GraphPad Software, San Diego Calif., USA).
# Aurora-1 (Aurora B) = Aurora-1 (Aurora B) (Homo sapiens, UniProt Q96GD4); assay: Aurora-1 (Aurora B) Inhibition Assay (radiometric); assay type: biochemical; settings: 800 μM ATP; read-out: Aurora B kinase activity Ki
# Protocol: An assay buffer solution was prepared which consisted of 25 mM HEPES (pH 7.5), 10 mM MgCl2, 0.1% BSA and 10% glycerol. A 22 nM Aurora-B solution, also containing 1.7 mM DTT and 1.5 mM Kemptide (LRRASLG), was prepared in assay buffer. To 22 μL of the Aurora-B solution, in a 96-well plate, was added 2 μl of a compound stock solution in DMSO and the mixture allowed to equilibrate for 10 minutes at 25° C. The enzyme reaction was initiated by the addition of 16 μl stock [γ-^33P]-ATP Pi-ATP solution (˜20 nCi/μL) prepared in assay buffer, to a final assay concentration of 800 μM. The reaction was stopped after 3 hours by the addition of 16 μL 500 mM phosphoric acid and the levels of ^33P incorporation into the peptide substrate were determined by the following method.
# A phosphocellulose 96-well plate (Millipore, Cat no. MAPHNOB50) was pre-treated with 100 μL of a 100 mM phosphoric acid prior to the addition of the enzyme reaction mixture (40 μL). The solution was left to soak on to the phosphocellulose membrane for 30 minutes and the plate subsequently washed four times with 200 μL of a 100 mM phosphoric acid. To each well of the dry plate was added 30 μL of Optiphase ‘SuperMix’ liquid scintillation cocktail (Perkin Elmer) prior to scintillation counting (1450 Microbeta Liquid Scintillation Counter, Wallac). Levels of non-enzyme catalyzed background radioactivity were determined by adding 16 μL of the 500 mM phosphoric acid to control wells, containing all assay components (which acts to denature the enzyme), prior to the addition of the [γ-^33P]-ATP solution. Levels of enzyme catalyzed ^33P incorporation were calculated by subtracting mean background counts from those measured at each inhibitor concentration. For each Ki determination 8 data points, typically covering the concentration range 0-10 μM compound, were obtained in duplicate (DMSO stocks were prepared from an initial compound stock of 10 mM with subsequent 1:2.5 serial dilutions). Ki values were calculated from initial rate data by non-linear regression using the Prism software package (Prism 3.0, Graphpad Software, San Diego, Calif.).
# Colo205 cells = assay: Analysis of Cell Proliferation, 3H thymidine incorporation; assay type: cell-based; settings: Homo sapiens
# Protocol: Compounds were screened for their ability to inhibit cell proliferation using Colo205 cells obtained from ECACC and using the assay shown below.
# Colo205 cells were seeded in 96 well plates and serially diluted compound was added to the wells in duplicate. Control groups included untreated cells, the compound diluent (0.1% DMSO alone) and culture medium without cells. The cells were then incubated for 72 or 96 hrs at 37C in an atmosphere of 5% CO2/95% humidity.
# To measure proliferation, 3 h prior to the end of the experiment 0.5 μCi of 3H thymidine was added to each well. Cells were then harvested and the incorporated radioactivity counted on a Wallac microplate beta-counter. Dose response curves were calculated using either Prism 3.0 (GraphPad) or SoftMax Pro 4.3.1 LS (Molecular Devices) software.
# [1] = COLO 205, 96 h, 96 hours, read-out: IC50 cell proliferation after 96 hours
# [2] = COLO 205, 72 h, 72 hours, read-out: IC50 cell proliferation after 72 hours
# Sequence of Aurora-1 (Aurora B) (Q96GD4 whole entry): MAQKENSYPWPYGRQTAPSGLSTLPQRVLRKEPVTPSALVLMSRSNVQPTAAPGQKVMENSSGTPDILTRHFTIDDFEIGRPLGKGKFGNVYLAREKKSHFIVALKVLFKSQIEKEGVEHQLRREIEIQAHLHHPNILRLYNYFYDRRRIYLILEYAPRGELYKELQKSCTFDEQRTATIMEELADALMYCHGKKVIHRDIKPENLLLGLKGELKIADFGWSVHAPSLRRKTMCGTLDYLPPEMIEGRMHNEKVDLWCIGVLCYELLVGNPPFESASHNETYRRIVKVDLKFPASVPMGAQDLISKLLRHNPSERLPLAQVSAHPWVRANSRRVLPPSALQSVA
Compound,Ki (Aurora-2 (Aurora A)) [nM],Ki (Aurora-1 (Aurora B)) [nM],IC50 (Colo205 cells; [1]) [nM],IC50 (Colo205 cells; [2]) [nM]
CCC(=O)Nc1ccc(Sc2nc(Nc3cc(C)n[nH]3)cc(N3CC[C@@H](NC(C)C)C3)n2)cc1 [Compound I-1],10 to 50,,,
Cc1cnc(Nc2cc(N3CCC[C@H](N(C)C)C3)nc(Sc3ccc(NC(=O)C4CC4)cc3)n2)s1 [Compound I-8],10 to 50,,50 to 200,
Cc1cnc(Nc2cc(N3CCC[C@@H](N(C)C)C3)nc(Sc3ccc(NC(=O)C4CC4)cc3)n2)s1 [Compound I-13],10 to 50,,50 to 200,
CCC(=O)Nc1ccc(Sc2nc(Nc3cc(C)n[nH]3)cc(N3CC[C@H](NC)C3)n2)cc1 [Compound I-22],≤ 10,10 to 50,50 to 200,
CCC(=O)Nc1ccc(Sc2nc(Nc3cc(C)n[nH]3)cc(N3CCC(C(C)(C)C)CC3)n2)cc1 [Compound I-23],≤ 10,,50 to 200,
CN[C@H]1CCCN(c2cc(Nc3ncc(C)s3)nc(Sc3ccc(NC(=O)C4CC4)cc3)n2)C1 [Compound I-25],≤ 10,,50 to 200,
Cc1cc(Nc2cc(N3CCCC(F)(F)C3)nc(Sc3ccc(NC(=O)CC(F)(F)F)cc3)n2)[nH]n1 [Compound I-26],≤ 10,10 to 50,50 to 200,25 to 125
CCC(=O)Nc1ccc(Sc2nc(Nc3cc(C)[nH]n3)cc(N3CC[C@H](NC(C)C)C3)n2)cc1 [Compound I-28],10 to 50,,50 to 200,
Cc1cnc(Nc2cc(N3CC[C@H](N(C)C)C3)nc(Sc3ccc(NC(=O)C4CC4)cc3)n2)s1 [Compound I-30],≤ 10,,50 to 200,
Cc1cc(Nc2cc(N3CCC4(CC3)CCN(C(C)C)C4)nc(Sc3ccc(NC(=O)C4CC4)cc3)n2)[nH]n1 [Compound I-31],≤ 10,10 to 50,50 to 200,
Cc1cc(Nc2cc(N3CCC4(CCN(C)C4)CC3)nc(Sc3ccc(NC(=O)C4CC4)c(F)c3)n2)[nH]n1 [Compound I-32],≤ 10,≤ 10,50 to 200,
CCC(=O)Nc1ccc(Sc2nc(Nc3cc(C)n[nH]3)cc(N3CCC(N4CCCC4(C)C)CC3)n2)cc1 [Compound I-33],≤ 10,10 to 50,50 to 200,
CCC(=O)Nc1ccc(Sc2nc(Nc3cc(C)n[nH]3)cc(N3CCC(C)(N4CCCC4)CC3)n2)cc1 [Compound I-34],≤ 10,,50 to 200,
Cc1cc(Nc2cc(N3CCC(F)C3)nc(Sc3ccc(NC(=O)c4ccccc4Cl)cc3)n2)[nH]n1 (centres unmarked) [Compound I-35],≤ 10,≤ 10,50 to 200,
CN[C@@H]1CCN(c2cc(Nc3ncc(C)s3)nc(Sc3ccc(NC(=O)C4CC4)cc3)n2)C1 [Compound I-36],≤ 10,,≤ 50,
Cc1cnc(Nc2cc(N3CC[C@@H](N4CCCC4)C3)nc(Sc3ccc(NC(=O)C4CC4)cc3)n2)s1 [Compound I-37],≤ 10,,≤ 50,
CCC(=O)Nc1ccc(Sc2nc(Nc3cc(C)n[nH]3)cc(N3CCC(N4CCOCC4)CC3)n2)cc1 [Compound I-40],≤ 10,10 to 50,≤ 50,
CCC(=O)Nc1ccc(Sc2nc(Nc3cc(C)n[nH]3)cc(N3CCC(N4CCC(F)C4)CC3)n2)cc1 (centres unmarked) [Compound I-43],≤ 10,10 to 50,≤ 50,
CCC(=O)Nc1ccc(Sc2nc(Nc3cc(C)n[nH]3)cc(N3CCC(N4CCCC4)C3)n2)cc1 (centres unmarked) [Compound I-48],≤ 10,,≤ 50,
CCC(=O)Nc1ccc(Sc2nc(Nc3cc(C)n[nH]3)cc(N3CC[C@H](N(C)CC)C3)n2)cc1 [Compound I-50],≤ 10,,≤ 50,
Cc1cc(Nc2cc(N3CCC(N4CCCC4)CC3)nc(Sc3ccc(NC(=O)CC4CC4)cc3)n2)n[nH]1 [Compound I-83],≤ 10,,,25 to 125
CCC(=O)Nc1ccc(Sc2nc(Nc3cc(C)n[nH]3)cc(N3CCC(OC(C)(C)C)CC3)n2)cc1 [Compound I-85],≤ 10,10 to 50,,

# Continued, values first:
Ki (Aurora-2 (Aurora A)) [nM],Ki (Aurora-1 (Aurora B)) [nM],IC50 (Colo205 cells; [1]) [nM],IC50 (Colo205 cells; [2]) [nM],Compound
≤ 10,,,,CCC(=O)Nc1ccc(Sc2nc(Nc3cc(C)n[nH]3)cc(N3CCC(O)(CC(C)(C)C)C3)n2)cc1 (centres unmarked) [Compound I-2]
≤ 10,,,,CCC(=O)Nc1ccc(Sc2nc(Nc3cc(C)n[nH]3)cc(N3CCC(N4CCCC4(C)C)C3)n2)cc1 (centres unmarked) [Compound I-3]
≤ 10,10 to 50,,,Cc1cnc(Nc2cc(N3CC[C@H](OC(C)C)C3)nc(Sc3ccc(NC(=O)C4CC4)cc3)n2)s1 [Compound I-5]
≤ 10,10 to 50,,,Cc1cnc(Nc2cc(N3CC[C@@H](O)C3)nc(Sc3ccc(NC(=O)C4CC4)cc3)n2)s1 [Compound I-6]
≤ 10,10 to 50,50 to 200,,CCC(=O)Nc1ccc(Sc2nc(Nc3cc(C)n[nH]3)cc(N3CC[C@@H](NC)C3)n2)cc1 [Compound I-9]
≤ 10,,50 to 200,,CCC(=O)Nc1ccc(Sc2nc(Nc3cc(C)n[nH]3)cc(N3CCC(O)(C(C)(C)C)C3)n2)cc1 (centres unmarked) [Compound I-10]
≤ 10,10 to 50,50 to 200,,CCC(=O)Nc1ccc(Sc2nc(Nc3cc(C)n[nH]3)cc(N3CCC(C)(O)C3)n2)cc1 (centres unmarked) [Compound I-11]
≤ 10,10 to 50,50 to 200,,CO[C@H]1CCN(c2cc(Nc3ncc(C)s3)nc(Sc3ccc(NC(=O)C4CC4)cc3)n2)C1 [Compound I-14]
≤ 10,10 to 50,50 to 200,,CCC(=O)Nc1ccc(Sc2nc(Nc3cc(C)[nH]n3)cc(N3CCC4(CC3)OCCO4)n2)cc1 [Compound I-15]
≤ 10,10 to 50,50 to 200,,CCC(=O)Nc1ccc(Sc2nc(Nc3cc(C)n[nH]3)cc(N3CCC(C#N)CC3)n2)cc1 [Compound I-16]
≤ 10,10 to 50,50 to 200,,CCC(=O)Nc1ccc(Sc2nc(Nc3cc(C)[nH]n3)cc(N3CCC(=O)CC3)n2)cc1 [Compound I-17]
≤ 10,,50 to 200,,CCC(=O)Nc1ccc(Sc2nc(Nc3cc(C)n[nH]3)cc(N3CC4CCCNC4C3)n2)cc1 (centres unmarked) [Compound I-19]
≤ 10,≤ 10,50 to 200,,CCC(=O)Nc1ccc(Sc2nc(Nc3cc(C4CC4)n[nH]3)cc(N3CCC(F)C3)n2)cc1 (centres unmarked) [Compound I-20]
≤ 10,10 to 50,50 to 200,,CCC(=O)Nc1ccc(Sc2nc(Nc3cc(C)n[nH]3)cc(N3CCC(C)(O)CC3)n2)cc1 [Compound I-21]

# From patent US20100137305A1, “AMINOPYRIMIDINES USEFUL AS KINASE INHIBITORS” (VERTEX PHARMACEUTICALS INCORPORATED, priority 2008, published 2010)
